Earlier results on 34 compounds are cited in PubChem BioAssay AID493017 (Abbott Labs, 2003).

For the data set, the target named is Cyclin-dependent kinase 2 (Homo sapiens) (UniProt P24941). Description: PubChem AID 493017. The settings on record: WOMBAT literature affinities, multiple human targets; CDK2; gene CDK2; NCBI gene 1017.

With `CCCCCOC(=O)c1ccc(N2C(=O)c3ccc(Oc4ccc(NC(C)=O)cc4)cc3C2=O)cc1`, the IC50 was 3300 nM.

Turning to `COC(=O)c1c(NC(=O)Nc2ccc(Cl)cc2)sc2c1CCN(c1ncc(C(F)(F)F)cc1Cl)C2`, the 50% inhibitory concentration (IC50) was 8890 nM. With `O=C(Nc1cccc2cccc(NC(=O)c3ccc([N+](=O)[O-])cc3)c12)c1ccc([N+](=O)[O-])cc1`, the IC50 is 2940 nM. Regarding `CCC(C)c1cc(N)nc2nc3cc(C)c(C)cc3n12` (centres undefined), the IC50 was 6620 nM. `Cc1cccc(NC(=O)Nc2ccc(Cc3ccc(NC(=O)Nc4cccc(C)c4)cc3)cc2)c1`: the IC50 is 4820 nM. For `C#Cc1cccc(N2C(=O)c3ccc(Oc4cccc(N5C(=O)c6ccc([N+](=O)[O-])cc6C5=O)c4)cc3C2=O)c1`, the IC50 is 2830 nM.

For the compound `Cc1ccc(Nc2nc(-c3cc(C(C)(C)C)c(O)c(C(C)(C)C)c3)c(C)s2)cc1`, the IC50 was 1220 nM.

For the compound `O=[N+]([O-])c1ccc(S(=O)(=O)c2ccc(Oc3ccc(S(=O)(=O)c4ccc([N+](=O)[O-])cc4)cc3)cc2)cc1`, the IC50 is 1520 nM. Consider `Nc1ccc(C(=O)Nc2ccc(-c3nc4ccc(NC(=O)c5ccc(N)cc5)cc4[nH]3)cc2)cc1`, for which the concentration for half-maximal inhibition (IC50) was 4510 nM. Consider `O=C(CSc1nnc(SCC(=O)Nc2nc(-c3ccccc3)cs2)s1)Nc1nc(-c2ccccc2)cs1`, for which the IC50 is 1310 nM. `c1ccc2c(c1)nc(SC1=NCCCN1)c1c3ccccc3[nH]c21`: the IC50 is 2160 nM. As for `CC(=O)c1c(O)c(C)c(O)c(Cc2c(O)c3c(c(C(=O)C=Cc4ccccc4)c2O)OC(C)(C)C=C3)c1O`, the IC50 was 4550 nM. With `O=C(Nc1ccc(Cl)cc1)c1cc(Br)ccc1NS(=O)(=O)c1ccc(Br)c2nsnc12`, the IC50 was 3660 nM. For `Cc1nc(N=C(N)NC(=O)Nc2ccc(Cl)cc2)sc1Br`, the half-maximal inhibitory concentration (IC50) is 2900 nM. `Cc1ccc(C(=O)Nc2ccc3c(c2)Cc2cc(NC(=O)c4ccc(C)cc4)ccc2-3)cc1`: the IC50 is 2960 nM. Take `O=C(Nc1ccc(NC(=O)c2ccccc2[N+](=O)[O-])cc1)c1ccc(NC(=O)c2ccccc2[N+](=O)[O-])cc1`: the IC50 was 1370 nM.

With `OCCNc1cc(-c2[nH]c3nccnc3c2-c2ccc(F)cc2)ccn1`, the IC50 is 3500 nM. Take `N#CC(=Cc1cc(O)c(O)c(O)c1)C(N)=C(C#N)C#N`: the IC50 is 1480 nM. Turning to `Nc1nc(NS(=O)(=O)c2ccc(C(F)(F)F)cc2)cc(-c2ccc(F)cc2)n1`, the IC50 is 1860 nM. As to `Oc1cc(O)cc(C=Cc2ccc(O)c(O)c2)c1`, the IC50 was 2580 nM. `O=C1c2ccc([N+](=O)[O-])c3c([N+](=O)[O-])ccc(c23)C(=O)N1c1ccc(S(=O)(=O)Nc2cc(Cl)ccc2O)cc1`: the 50% inhibitory concentration (IC50) is 1410 nM. Regarding `COC(=O)NC1=Nc2cccc3cccc(c23)N1`, the IC50 was 4390 nM. For `CN1CCc2nc(SCc3ccc(C(C)(C)C)cc3)c(C#N)c(-c3cccs3)c2C1`, the IC50 was 1120 nM.

In the case of `N#Cc1cnc(NC2CCCCC2)nc1N`, the IC50 was 1100 nM. Turning to `Cc1cc(Cc2ccc(NC(N)=S)c(C)c2)ccc1NC(N)=S`, the IC50 is 2650 nM. With `O=C(Nc1ccccc1)Nc1sccc1OCc1ccc(Cl)cc1Cl`, the half-inhibitory concentration (IC50) was 3370 nM. For `O=C(Nc1cc([N+](=O)[O-])ccc1O)c1ccc(Oc2ccc(C(=O)Nc3cc([N+](=O)[O-])ccc3O)cc2)cc1`, the IC50 is 1150 nM.

On to `O=C(Nc1ccc([N+](=O)[O-])cc1)C(Cc1ccccc1)N1C(=O)c2cccc3cccc(c23)C1=O` (centres undefined), for which the IC50 was 4190 nM. Turning to `CCOC(=O)Nc1nc2ccc(C=Cc3ccc(C)cc3)cc2[nH]1`, the IC50 is 7350 nM. In the case of `Cc1cc(Nc2ccc3[nH]ncc3c2)nc(NCC2CC2)n1`, the half-inhibitory concentration (IC50) is 4100 nM. As to `COC(=O)c1cc(=O)n2c(nc3cc(C(F)(F)F)ccc32)s1`, the IC50 was 7770 nM. With `O=C(Cc1nnc(NC(=O)c2ccc([N+](=O)[O-])c(Cl)c2)s1)NNC(=O)c1ccc([N+](=O)[O-])c(Cl)c1`, the IC50 was 1210 nM.

For `c1cnc2nc(-c3ccncc3)[nH]c2c1`, the IC50 is 3000 nM. Take `S=c1[nH]c(=S)c2c3c(sc2[nH]1)CN(Cc1ccccc1)CC3`: the half-maximal inhibitory concentration (IC50) is 1130 nM.

In general, IC50 refers to the concentration at which inhibition is half-maximal.
